Measurements from the NIST ThermoML archive (doi:10.1016/j.jct.2018.12.022).
Numbers after ± are expanded uncertainties.

Tests used:
[1] = 298.15 K, 101.33 kPa, Liquid
[2] = refractive index (Na D-line) (dimensionless); details: 298.15 K; 101.33 kPa; Liquid; Standard Abbe refractometry

viscosity ([1]; Falling or rolling sphere viscometry): 715 ± 70 mPa·s
mass density ([1]; Vibrating tube method): 1122.56 ± 1.1 kg/m3
refractive index [2]: 1.4868 ± 0.0006
SMILES: C[C@H](N)C(=O)[O-].C[N+](C)(C)CCO [2-hydroxy-N,N,N-trimethylethanaminium L-alaninate]
